Data taken from paper PMC6278366, “Synthesis and Evaluation of Anticancer Activities of Novel C-28 Guanidine-Functionalized Triterpene Acid Derivatives” (Molecules, 2018).
Where a name gives a salt, the structure may show the parent alone.

What was measured:
normal human fibroblasts = test: Cytotoxicity assay (7-AAD viability, flow cytometry), normal fibroblasts; type: cell-based; conditions: Homo sapiens, Fibroblast, mean ± SE, at least three experiments in duplicate
[1] = tested on: Jurkat (T-lymphoblastic leukemia) cells; test: cells; type: cell-based; conditions: Homo sapiens, Jurkat, mean ± SE, at least three experiments in duplicate; viable cells; read-out: IC50 Jurkat
How it was run: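 Suspension lines in RPMI 1640 with 10% FBS at 37 °C, 5% CO2, treated with compounds at 1, 5, 10, 15, 30 and 60 μM. Live/dead status by 7-AAD staining (15 min, room temperature, dark) read on flow cytometer, 488 nm excitation, 675/30 nm emission.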

[2] = tested on: HEK293 (embryonic kidney) cells; test: Cytotoxicity assay (7-AAD viability, flow cytometry), HEK293; type: cell-based, human; conditions: Homo sapiens, HEK293, mean ± SE, at least three experiments in duplicate; viable cells
How it was run: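 Adherent HeLa, HEK293 and normal human fibroblasts (5 × 10⁴/well, DMEM with 10% FBS, 37 °C, 5% CO2) were treated with compounds at 1, 5, 10, 15, 30 and 60 μM. Viability was read as 7-AAD exclusion by flow cytometry after 15 min staining.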

Structure (SMILES): CC(=O)O[C@H]1CC[C@@]2(C)C(CC[C@]3(C)C2CCC2C4C(C(C)C)CC[C@]4(C(=O)OCC(N)(CO)CO)CC[C@]23C)C1(C)C (stereo partly drawn) [Compound 15, 3β-[2-Amino-3-hydroxy-2-(hydroxymethyl)propyl]-3-O-acetyl-lupane-28-oate]
- IC50 (normal human fibroblasts): 31 ± 0.29 µM
- IC50 [1]: 3.3 ± 0.11 µM
- IC50 [2]: 17 ± 0.25 µM

Structure (SMILES): CC(=O)O[C@H]1CC[C@@]2(C)C(CC[C@]3(C)C2CCC2C4C(C(C)C)CC[C@]4(C(=O)OCC(CO)(CO)NC(=N)N)CC[C@]23C)C1(C)C (stereo partly drawn) [Compound 15c, 3β-[2-Guanidine-3-hydroxy-2-(hydroxymethyl)propyl]-3-O-acetyl-lupane-28-oate hydrochloride]
- IC50 (normal human fibroblasts): 27 ± 0.14 µM
- IC50 [1]: 3.1 ± 0.41 µM
- IC50 [2]: 16 ± 0.27 µM
